Data on one compound can be found in PMC5004205, “Spiro[pyrrolidine-3, 3´-oxindole] as potent anti-breast cancer compounds: Their design, synthesis, biological evaluation and cellular target identification” (Scientific Reports, 2016).

“Also recorded” adds a separate entry of the source.

The test system of one series is MCF10A cells. The series is described as follows: MTT cytotoxicity assay, MCF10A. The format is cell-based. On the procedure: MCF10A was obtained from American Tissue Type Culture Collection (ATCC, Bethesda, MD). All cells were grown in a humidified atmosphere at 37 °C, with 5% CO2 in air.
The MTT colorimetric viability assay was performed to evaluate the anticancer effect of compounds. 30,000 cells/100 μl of media were seeded per well and allowed to stretch and adhere overnight at 37 °C. Following day media was removed and 100 μl fresh media was added to the grown cells. Adhered cells were then treated with the compounds 5a-m dissolved in DMSO in triplicates at a standard concentration of 50 μM for 48 hours. There was one positive and one negative control along with 13 compounds. The results were measured all in triplicate in 45 wells of 96 well plate at each time point. Cytotoxic effect was evaluated using ability of live cells to cleave MTT ((3-[4, 5- dimethylthiazol-2-yl]-2, 5-diphenyl tetrazolium bromide)) (Sigma-Aldrich, St Louis, MO, USA), into formazan crystals. Post 48 hours of treatment, 10 μl of MTT (5 mg/ml in PBS) was added to the cells and incubated for 4 hours in dark at 37 °C. The violet colored crystals formed were then dissolved in 100 μl DMSO solvent (Dimethyl Sulfoxide, Sigma-Aldrich, St. Louis, MO, USA). The colorimetric assay was read by a MultiMode Plate Reader (Bio-Rad) at 595 nm. Percentage of Inhibition of drug was calculated by following formula: […]
Cytotoxicity assay with MCF 10A
Experiment :MCF10A cytotoxicity assay 48 hours
Raw Data{Wavelength:595.0}
O.D1 O.D2 O.D3 AVG CTRL-TEST CTRL-TST/CTRL*100
(1 picture or pasted object on this page, not shown here)

In a further series the test system is MCF-7 cell lysate. The series is described as follows: Chemical proteomics target deconvolution with polymer-immobilized 5l. The format is binding, Human. The settings on record: differential proteins common to three experiments, MS. On the procedure:
5l was provided as a lyophilized powder. A 100 mM stock of 5l was made in DMSO. The stock solution was diluted to 215 μM in 1 mM of phosphate buffer in pH 6.0 and incubated with the matrix for 16 hrs at room temperature. After incubation, the matrix was washed five times with Phosphate buffer. The amount of molecule in the phosphate buffer wash was quantified by HPLC-UV based method and amount of molecule retained on the matrix was calculated.
Cell lysates were prepared in RIPA buffer and protein concentration was determined by Bradford method. Cell lysate was diluted with 1X TBS to a concentration of 1 mg/ml. The 5l immobilized matrix was incubated with 2 ml of cell lysate for 2 min with mild shaking. The matrix was washed with 1X TBS to remove unbound proteins and to reduce non-specific interactions. The molecule bound proteins were then recovered by acetone precipitation and was dissolved in 1X sample buffer. Proteins were separated on a 4–12% gradient gel and bands were digested by standard “in-gel” trypsin digestion methods. […]
Agilent Mass Hunter software was used for data acquisition and analysis of Total ion chromatograms. […] The peptide sequence was also analysed for variable modifications such as methionine oxidation, acetylation, cysteine sulfoxide, deamidation and pyro glutamic acid modification.

A further series deals with MCF-7 cells. The series is described as follows: DNA fragmentation (DNA-ladder) assay. The format is cell-based. The settings on record: MCF-7, gel electrophoresis. On the procedure:
The DMSO (dimethyl sulphoxide)–SDS (sodium dodecyl sulphate)–TE (Tris-EDTA) method: 2 million MCF-7cells were taken as starting material for DNA isolation. Cells were dislodged with Trypsin-EDTA and washed with 1 X PBS. DMSO was added directly to the cell pellet (100 μl) and mixed well by pipetting. TE buffer (pH 7.4) with 2% SDS was added into the mixture with same volume, followed by pipetting. The solution was centrifuged at 3000 rpm at 4 °C and 30 μL of the supernatant was loaded on agarose gel to check the effect of drugs on DNA molecule.

For `O=C1Nc2ccccc2C12CCNC2c1ccccc1` (centres unmarked) [Compound 5l], the “Effect on proliferation of healthy MCF10A cells” value in the series with MCF10A cells is on record as “did not inhibit the proliferation; also recorded: little or no effect”. The “CTRL-TST/CTRL*100 MCF10A cytotoxicity” value with MCF10A cells (48 hours, 595 nm) is 0.08. Also, the “Percentage inhibition MCF10A” value in the series with MCF10A cells (MTT, 48 hours) is given as 0.08%. For the same compound, the “Putative cellular binding targets” value in the series with MCF-7 cell lysate was “HDAC2 and Prohibitin 2 are considered top priority targets”. In addition, in the series on MCF-7 cells, the “DNA fragmentation pattern / mode of cell death” value is listed as “smearing of DNA fragments”.
